# Several values for one entry are separate records, joined by “and”; a condition that tells them apart may be missing. Identical values can stand only once. Like-named read-outs stand apart in the source and are kept apart here.
# What was measured:
# [1] = Study #2 Phase 1: pharmacokinetics after single IV and single/multiple oral doses of Compound 1, absolute oral bioavailability;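 note: phase 1 study design: one IV dose, then escalating single oral doses, fed versus fasted single oral dosing, and once-daily oral dosing over 14 days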
# Description: (§1) In the single ascending dose (SAD) phase, subjects in Cohort 1a received a single IV dose in Period A and then rising single oral doses in Periods B to D. Subjects in Cohort 1b received a single oral dose under fed and fasted conditions in Periods E and F. Subjects in Cohorts 2 and 3 received once-daily oral doses for 14 days, as did subjects in Cohort 4 as part of an in vivo screen for drug-drug interaction (DDI) potential.
# (§2) For SAD Cohorts 1a and 1b, urine samples for the determination of Compound 1A were collected through 48 hrs after dosing.
# (§3) Forty-six (46) subjects were enrolled into the study, 8 in Cohort 1a, 10 in Cohort 1b, and 8 each in Cohorts 2 and 3.
# [2] = human, in vivo
# Description: This was a Phase 1, first-in-human, randomized, double-blind, placebo-controlled single ascending dose (SAD) and multiple ascending dose (MAD) escalation study of 120 healthy male and female subjects. The objectives of the study were to evaluate the safety, tolerability, and pharmacokinetics of single and multiple doses of Compound 1 administered by intravenous (IV) infusion.
# In the single ascending dose (SAD) phase, Cohorts 1 to 6 and 11A to 11D received single doses. For Cohorts 11A to 11D, the infusion time varied from 0.5 to 3 hours to evaluate the relationship between C., and tolerability. In the multiple ascending dose (MAD) phase, Cohorts 7 to 10 received multiple doses over 14 days, and Cohort 12 examined the feasibility of a loading dose regimen.
# Blood samples for the determination of Compound 1 and Compound 1A plasma concentrations were collected before and at appropriate times during all single- and multiple-dose administrations of Compound 1. For SAD Cohorts 1 to 6, urine samples for the determination of Compound 1A were collected through 48 hrs after dosing.
# Eighty (80) subjects were enrolled into SAD Cohorts 1 to 6 and 11A to 11D. Within each cohort, six subjects were randomized to Compound 1 and two subjects to placebo. All 60 subjects randomized to Compound 1 completed dosing. Fifty-nine (59) subjects completed the study.
# Forty (40) subjects were enrolled into MAD Cohorts 7 to 10 and Loading Dose Cohort 12. Within each cohort, six subjects were randomized to Compound 1 and two subjects to placebo.
# The PK analysis population therefore consisted of 60 subjects in the SAD phase and 28 subjects in the MAD phase.
# clinical = details: human, plasma, po
# Description: as §1, §2, §3
# [3] = oral Compound 1 QD × 14 days, 3 cohorts
# [4] = single oral doses of Compound 1 100 mg to 500 mg, fasted
compound,measurement,setting,value
Nc1ncccc1-c1cc(Cc2ccc(COc3ccccn3)cc2)no1 [Compound 1A],AUC(0-inf),"[1]; human, plasma, iv, 200 mg",87.5 µg·h/mL
same,Vd,"[1]; human, plasma, iv, 200 mg",124 L and 1.6 L/kg
same,clearance,"[1]; human, plasma, iv, 200 mg",29.1 mL/min and 0.377 mL/min/kg
same,AUC(0-t),"[1]; human, plasma, iv, 200 mg, AUC(0-24), 200 mg/3 hr IV Compound 1, fasted, geometric mean",24.4 µg·h/mL
same,AUC(0-t),"[1]; human, plasma, iv, 200 mg, AUC(0-t), 200 mg/3 hr IV Compound 1, fasted, geometric mean",86.3 µg·h/mL
same,Cmax,"[1]; human, plasma, iv, 200 mg, 200 mg/3 hr IV Compound 1, fasted, geometric mean",2640 ng/mL
same,Tmax,"[1]; human, plasma, iv, 200 mg, Tmax, 200 mg/3 hr IV Compound 1, fasted, median",3 h
same,half-life,"[1]; human, plasma, iv, 200 mg, geometric mean t1/2, IV treatment, 200 mg Compound 1 over 3 hrs",49.1 h
same,half-life,"[1]; human, plasma, iv, 200 mg, t½, 200 mg/3 hr IV Compound 1, fasted, geometric mean",49.1 h
same,bioavailability,"[1]; human, plasma, oral",90.6 to 101%
same,AUC(0-t),"[1]; human, plasma, oral, 500 mg, AUC(0-24), Day 1, Cohort 2, 500 mg Tablets QD × 14 Days, fed, geometric mean",50.7 µg·h/mL
same,AUC(0-t),"[1]; human, plasma, oral, 500 mg, AUC(0-24), Day 7, Cohort 2, 500 mg Tablets QD × 14 Days, fed, geometric mean",154 µg·h/mL
same,AUC(0-t),"[1]; human, plasma, oral, 500 mg, AUC(0-24), Day 14, Cohort 2, 500 mg Tablets QD × 14 Days, fed, geometric mean",191 µg·h/mL
same,CL/F,"[1]; human, plasma, oral, 500 mg, CL, Day 14, Cohort 2, 500 mg Tablets QD × 14 Days, fed, geometric mean",0.462 mL/min/kg
same,Cmax,"[1]; human, plasma, oral, 500 mg, Day 1, Cohort 2, 500 mg Tablets QD × 14 Days, fed, geometric mean",6180 ng/mL
same,Cmax,"[1]; human, plasma, oral, 500 mg, Day 7, Cohort 2, 500 mg Tablets QD × 14 Days, fed, geometric mean",10900 ng/mL
same,Cmax,"[1]; human, plasma, oral, 500 mg, Day 14, Cohort 2, 500 mg Tablets QD × 14 Days, fed, geometric mean",12000 ng/mL
same,Tmax,"[1]; human, plasma, oral, 500 mg, Tmax, Day 1, Cohort 2, 500 mg Tablets QD × 14 Days, fed, median",4 h
same,Tmax,"[1]; human, plasma, oral, 500 mg, Tmax, Day 7, Cohort 2, 500 mg Tablets QD × 14 Days, fed, median",3.76 h
same,Tmax,"[1]; human, plasma, oral, 500 mg, Tmax, Day 14, Cohort 2, 500 mg Tablets QD × 14 Days, fed, median",3.75 h
same,half-life,"[1]; human, plasma, oral, 500 mg, T½, Day 14, Cohort 2, 500 mg Tablets QD × 14 Days, fed, geometric mean",73.4 h
same,AUC(0-t),"[1]; human, plasma, oral, 1000 mg, AUC(0-24), Day 1, Cohort 3, 1000 mg Tablets QD × 14 Days, fed, geometric mean",119 µg·h/mL
same,AUC(0-t),"[1]; human, plasma, oral, 1000 mg, AUC(0-24), Day 7, Cohort 3, 1000 mg Tablets QD × 14 Days, fed, geometric mean",316 µg·h/mL
same,AUC(0-t),"[1]; human, plasma, oral, 1000 mg, AUC(0-24), Day 14, Cohort 3, 1000 mg Tablets QD × 14 Days, fed, geometric mean",326 µg·h/mL
same,CL/F,"[1]; human, plasma, oral, 1000 mg, CL, Day 14, Cohort 3, 1000 mg Tablets QD × 14 Days, fed, geometric mean",0.582 mL/min/kg
same,Cmax,"[1]; human, plasma, oral, 1000 mg, Day 1, Cohort 3, 1000 mg Tablets QD × 14 Days, fed, geometric mean",10600 ng/mL
same,Cmax,"[1]; human, plasma, oral, 1000 mg, Day 7, Cohort 3, 1000 mg Tablets QD × 14 Days, fed, geometric mean",21300 ng/mL
same,Cmax,"[1]; human, plasma, oral, 1000 mg, Day 14, Cohort 3, 1000 mg Tablets QD × 14 Days, fed, geometric mean",21300 ng/mL
same,Tmax,"[1]; human, plasma, oral, 1000 mg, Tmax, Day 1, Cohort 3, 1000 mg Tablets QD × 14 Days, fed, median",4.5 h
same,Tmax,"[1]; human, plasma, oral, 1000 mg, Tmax, Day 7, Cohort 3, 1000 mg Tablets QD × 14 Days, fed, median",4 h
same,Tmax,"[1]; human, plasma, oral, 1000 mg, Tmax, Day 14, Cohort 3, 1000 mg Tablets QD × 14 Days, fed, median",3.77 h
same,half-life,"[1]; human, plasma, oral, 1000 mg, T½, Day 14, Cohort 3, 1000 mg Tablets QD × 14 Days, fed, geometric mean",52.6 h
same,bioavailability,"[1]; human, plasma, po, 100 mg",90.6%
same,Tmax,"[1]; human, plasma, po, 100 mg, Tmax, 100 mg Oral Compound 1, fasted, median",2 h
same,AUC(0-inf),"[1]; human, plasma, po, 300 mg",122 µg·h/mL
same,Vd/F,"[1]; human, plasma, po, 300 mg",142 L and 1.84 L/kg
same,bioavailability,"[1]; human, plasma, po, 300 mg",93.1%
same,AUC(0-t),"[1]; human, plasma, po, 300 mg, AUC(0-24), 300 mg Oral Compound 1, fasted, geometric mean",35.6 µg·h/mL
same,AUC(0-t),"[1]; human, plasma, po, 300 mg, AUC(0-t), 300 mg Oral Compound 1, fasted, geometric mean",118 µg·h/mL
same,CL/F,"[1]; human, plasma, po, 300 mg, CL/F, 300 mg Oral Compound 1, fasted, geometric mean",0.405 mL/min/kg
same,Cmax,"[1]; human, plasma, po, 300 mg, 300 mg Oral Compound 1, fasted, geometric mean",3750 ng/mL
same,Tmax,"[1]; human, plasma, po, 300 mg, Tmax, 300 mg Oral Compound 1, fasted, median",2.5 h
same,half-life,"[1]; human, plasma, po, 300 mg, t½, 300 mg Oral Compound 1, fasted, geometric mean",52.5 h
same,bioavailability,"[1]; human, plasma, po, 400 mg",101%
same,Tmax,"[1]; human, plasma, po, 400 mg, Tmax, 400 mg Oral Compound 1, fasted, median",2.5 h
same,AUC(0-inf),"[1]; human, plasma, po, 500 mg",205 µg·h/mL
same,Vd/F,"[1]; human, plasma, po, 500 mg",121 L and 1.62 L/kg
same,bioavailability,"[1]; human, plasma, po, 500 mg",93.5%
same,AUC(0-t),"[1]; human, plasma, po, 500 mg, AUC(0-24), 500 mg Oral Compound 1, fasted, geometric mean",59 µg·h/mL
same,AUC(0-t),"[1]; human, plasma, po, 500 mg, AUC(0-24), Day 1, Cohort 4, 500 mg Oral Solution QD × 14 Days, fed, geometric mean",56.7 µg·h/mL
same,AUC(0-t),"[1]; human, plasma, po, 500 mg, AUC(0-24), Day 7, Cohort 4, 500 mg Oral Solution QD × 14 Days, fed, geometric mean",140 µg·h/mL
same,AUC(0-t),"[1]; human, plasma, po, 500 mg, AUC(0-24), Day 14, Cohort 4, 500 mg Oral Solution QD × 14 Days, fed, geometric mean",153 µg·h/mL
same,AUC(0-t),"[1]; human, plasma, po, 500 mg, AUC(0-t), 500 mg Oral Compound 1, fasted, geometric mean",197 µg·h/mL
same,CL/F,"[1]; human, plasma, po, 500 mg, CL, Day 14, Cohort 4, 500 mg Oral Solution QD × 14 Days, fed, geometric mean",0.555 mL/min/kg
same,CL/F,"[1]; human, plasma, po, 500 mg, CL/F, 500 mg Oral Compound 1, fasted, geometric mean",0.418 mL/min/kg
same,Cmax,"[1]; human, plasma, po, 500 mg, 500 mg Oral Compound 1, fasted, geometric mean",6410 ng/mL
same,Cmax,"[1]; human, plasma, po, 500 mg, Day 1, Cohort 4, 500 mg Oral Solution QD × 14 Days, fed, geometric mean",5850 ng/mL
same,Cmax,"[1]; human, plasma, po, 500 mg, Day 7, Cohort 4, 500 mg Oral Solution QD × 14 Days, fed, geometric mean",10400 ng/mL
same,Cmax,"[1]; human, plasma, po, 500 mg, Day 14, Cohort 4, 500 mg Oral Solution QD × 14 Days, fed, geometric mean",12300 ng/mL
same,Tmax,"[1]; human, plasma, po, 500 mg, Tmax, 500 mg Oral Compound 1, fasted, median",3 h
same,Tmax,"[1]; human, plasma, po, 500 mg, Tmax, Day 1, Cohort 4, 500 mg Oral Solution QD × 14 Days, fed, median",2 h
same,Tmax,"[1]; human, plasma, po, 500 mg, Tmax, Day 7, Cohort 4, 500 mg Oral Solution QD × 14 Days, fed, median",2 h
same,Tmax,"[1]; human, plasma, po, 500 mg, Tmax, Day 14, Cohort 4, 500 mg Oral Solution QD × 14 Days, fed, median",1 h
same,half-life,"[1]; human, plasma, po, 500 mg, T½, Day 14, Cohort 4, 500 mg Oral Solution QD × 14 Days, fed, geometric mean",55.4 h
same,half-life,"[1]; human, plasma, po, 500 mg, t½, 500 mg Oral Compound 1, fasted, geometric mean",44.9 h
same,half-life,"[1]; human, plasma, po, geometric mean t1/2, range across treatments, 4 oral treatments of Compound 1",44.9 to 64.7 h
same,Tmax,"[1]; human, plasma, po, median tmax, range across doses and study days, oral Compound 1 500 mg and 1000 mg QD × 14 days, fed",2 to 3 h
same,Tmax,"[1]; human, plasma, po, median tmax, range across doses, 4 single oral doses of Compound 1",2 to 3 h
same,"median accumulation, ratio of AUC0-24 on Day 14 to Day 1",[1]; [3],2.95
same,"median accumulation, ratio of Cmax on Day 14 to Day 1",[1]; [3],1.99
same,increase in geometric mean Cmax and AUC0-24 from 500 mg to 1000 mg,"[1]; oral QD × 14 days, Days 1, 7, and 14",~2 fold
same,slope of log-log AUC(inf) vs. dose (power model parameter b),[1]; [4],1.04±0.046
same,slope of log-log Cmax vs. dose (power model parameter b),[1]; [4],0.935±0.077
same,slope of log-log AUC0-24 vs. dose (power model parameter b),[2]; both,1.015±0.043
same,slope of log-log steady-state Cmax vs. dose (power model parameter b),[2]; both,1.039±0.031
same,CL,"[2]; both, iv",0.387 mL/min/kg
same,"median accumulation, ratio of AUC0-24 on Day 14 to Day 1","[2]; both, iv",3.27
same,"median accumulation, ratio of Cmax on Day 14 to Day 1","[2]; both, iv",1.96
same,slope of log-log AUC(inf) versus dose (power model parameter b),"[2]; both, iv",1.01±0.020
same,slope of log-log Cmax versus dose (power model parameter b),"[2]; both, iv",0.929±0.021
same,time at which steady-state is reached,"[2]; both, iv",between Day 7 and Day 14
same,"target plasma exposures (AUC0-24) for clinical efficacy against Candida spp., Aspergillus spp., rare molds",[2]; iv,exceeded
same,AUC(0-inf),clinical; 100 mg,39.6 µg·h/mL
same,CL/F,clinical; 100 mg,0.417 mL/min/kg
same,Cmax,clinical; 100 mg,1300 ng/mL
same,Vd/F,clinical; 100 mg,138 L and 1.78 L/kg
same,half-life,clinical; 100 mg,49.5 h
same,AUC(0-inf),clinical; 400 mg,177 µg·h/mL
same,CL/F,clinical; 400 mg,0.418 mL/min/kg
same,Cmax,clinical; 400 mg,4250 ng/mL
same,Vd/F,clinical; 400 mg,161 L and 2.35 L/kg
same,half-life,clinical; 400 mg,64.7 h

# Reference: patent publication US20210290644A1, “COMPOUNDS AND METHODS FOR TREATING FUNGAL INFECTIONS” (Amplyx Pharmaceuticals, Inc., priority 2018, published 2021)
